Reference: US6399590B2, “Phosphoglycolipid and methods for its use” (Corixa Corporation, priority 1998, dated 2002)

Key:
[1] = system: Mongrel dogs, LAD occlusion/reperfusion; assay: Infarct size in dogs with bolus plus drug infusion; assay type: in vivo, dog; settings: FIG. 3
Method: Mongrel dogs weighing 16-24 kg were randomly assigned to one of four groups: vehicle control; L34 high dose bolus plus infusion; L34 low dose bolus plus infusion and L34 bolus only. Animals in the L34 high dose bolus plus infusion group received an intravenous bolus injection of 70 μg/kg L34 formulated in vehicle (40% propylene glycol and 10% ethanol in water) and diluted in 5% dextrose in water to a final volume of 10 ml immediately followed by 40 μg/kg/h infusion of the drug beginning three hours prior to occlusion. The low dose bolus plus infusion group of dogs were bolus dosed with 35 μg/kg of drug followed immediately thereafter by infusion of drug at a dose of 4.0 μg/kg/h. […]
After stabilization, animals underwent a 60 min period of occlusion. Heart rate and arterial pressures were monitored at baseline, immediately before the sustained occlusion, and at 10 min after the onset of occlusion. […] The severity of ischemia was assessed in all dogs by measurement of RMBF at 10 min after the onset of LAD occlusion.
At the end of 3 h reperfusion the LAD was reoccluded and UNISPERSE® blue pigment (0.25-0.5 ml/kg) was injected into the coronary vasculature via the left atrial catheter to delineate the in vivo boundaries of the occluded LAD bed, and, with animals under deep anesthesia, cardiac arrest was produced by intracardiac injection of KCl. […] RMBF was then quantified using standard methods.

[2] = system: pig model of regional myocardial ischemia/reperfusion; assay: Infarct size in pigs, 40 min LAD occlusion and 3 h reperfusion; assay type: in vivo; settings: i.v. 10 min prior to coronary artery occlusion (35 μg/kg); FIG. 4
Method: To assess the efficacy of L34 to reduce infarct size, nine pigs were assigned in a non-blinded fashion to one of four groups: (1) control (n=2), (2) vehicle control (n4), (3) L34 (35 μg/kg) (n=2), (4) L34 (70 μg/kg) (n=1). L34 was formulated in 10% ethanol, 40% propylene glycol in Water for Injection. Blinded studies were additionally conducted with eight pigs randomly assigned to one of two treatment groups: (1) A (n=4), (2) B (n=4). Group A and B were either vehicle control or L34. Vehicle or drug injection was diluted one to one with 5% dextrose in Water for Injection prior to administration.
Male pigs (15-20 kg) were anesthetized with ketamine (25 mg/kg, i.m.) and sodium pentobarbital (10 mg/kg, i.v.), intubated and mechanically ventilated with room air. Pigs were placed on a 37° C. circulating water heating pad. The left carotid artery of each animal was cannulated with 5Fr Millar catheter for measuring left ventricular pressure and the right carotid artery was cannulated with 24G I.V. catheter for sampling blood. A median sternotomy was performed and the pericardium was incised. […]
Following 40 min of occlusion, the snare was released and the myocardium was reperfused for 3 h. The hemodynamic parameters at certain time points were recorded and blood samples were collected. […]

For `CCCCCCCCCCCCCCCCCC(=O)O[C@H](CCCCCCCCCCC)CC(=O)N[C@H]1[C@H](OC[C@H]2OC(O)[C@H](NC(=O)C[C@@H](CCCCCCCCCCC)OC(=O)CCCCCCCCCCCCCCC)[C@@H](O)[C@@H]2O)O[C@H](CO)[C@@H](OP(=O)(O)O)[C@@H]1OC(=O)C[C@@H](CCCCCCCCCCC)OC(=O)CCCCCCCCCCCCC` (stereo partly drawn) [L34, 2-Deoxy-6-O-[2-deoxy-4-O-phosphono-3-O-[(R)-3-tetradecanoyloxytetradecanoyl]-2-[(R)-3-octadecanoyloxytetradecanoylamino]-β-D-glucopyranosyl]-2-[(R)-3-hexadecanoyloxytetradecanoylamino]-D-glucopyranose], the “infarct size as ratio of area of necrosis (AN) to area at risk (AR)” value ([1]; 70 μg/kg bolus only, 3 h before occlusion) was “no reduction in infarct size”, the “infarct size as ratio of area of necrosis (AN) to area at risk (AR)” value ([1]; bolus (70 or 35 μg/kg) plus infusion (40 or 4.0 μg/kg/h) beginning 3 h prior to occlusion) was “statistically significant reduction in infarct size” and the “reduction in infarct size expressed as % AN/AR in g compared to controls” value [2] was 46%.
